Data from patent publication US5283271A, “3,5-diphenyl or substituted 3,5-diphenyl-1-hydroxy-1,2-dihydroimidazole-2-thiones” (Olin Corporation, priority 1992, dated 1994).
≈ marks a conversion by molar mass, not a printed value. Counter-ions that a name gives are not always drawn. Like-named read-outs stand apart in the source and are kept apart here.

Columns and labels:
Assay type in all cases: cell-based
[1] = tested on: E. Coli; assay: Minimum Inhibitory Concentration (MIC), E. Coli; conditions: Escherichia coli, 48 h, Tryptic Soy Broth, 37° C., two days
Experimental: (§1) Determination of the Minimum Inhibitory Concentrations (MIC's) for the Compounds Prepared in Part A
(§2) Solutions of the experimental compounds in dimethyl sulfoxide and an aqueous solution of sodium pyrithione were serially diluted in nutrient broth (Tryptic Soy Broth for bacteria and Sabouraud Dextrose Broth for fungi) in microtiter plates. Equal volumes of a broth supension of bacteria (10^6 CFU/ml) or fungi (10^5 cells or spores/ml) were added to each dilution, and the plates were incubated at 37° C. (bacteria and yeast) or 28° C. (molds). Bacteria, yeast and molds were incubated two, five and seven days respectively before determining the highest inhibitory dilution.

[2] = tested on: S. aureus; assay: Minimum Inhibitory Concentration (MIC), S. aureus; conditions: Staphylococcus aureus, 48 h, Tryptic Soy Broth, 37° C., two days
Experimental: as §1, §2

[3] = tested on: Candida albicans; assay: Minimum Inhibitory Concentration (MIC), Candida albicans; conditions: 120 h
Experimental: as §1, §2

[4] = tested on: Aureobasidium pullulans; assay: Minimum Inhibitory Concentration (MIC), Aureobasidium pullulans
Experimental: as §1, §2

[5] = tested on: Aspergillins niger; assay: Minimum Inhibitory Concentration (MIC), Aspergillins niger; conditions: 168 h
Experimental: as §1, §2

[6] = tested on: Fusarium; assay: Minimum Inhibitory Concentration (MIC), Fusarium; conditions: 168 h, Sabouraud Dextrose Broth, 28° C., seven days (molds)
Experimental: as §1, §2

[7] = Sabouraud Dextrose Broth, 37° C., five days (yeast), read-out: MIC
[8] = Sabouraud Dextrose Broth, read-out: MIC
[9] = Aspergillins niger, Sabouraud Dextrose Broth, 28° C., seven days (molds), read-out: MIC

On1c(-c2ccccc2)cn(-c2ccccc2)c1=S [Compound 1, 3,5-diphenyl-1-hydroxy-1,2-dihydroimidazole-2-thione]
MIC [1]: 64 µg/mL (≈ 239 µM) | MIC [2]: 256 µg/mL (≈ 954 µM) | MIC [3, 7]: 2 µg/mL (≈ 7.45 µM) | MIC [4, 8]: 2 µg/mL (≈ 7.45 µM) | MIC [5, 9]: 8 µg/mL (≈ 29.8 µM) | MIC [6]: 16 µg/mL (≈ 59.6 µM)

COc1ccc(-n2cc(-c3ccccc3)n(O)c2=S)cc1 [Compound 2, 3-(p-methoxyphenyl)-5-phenyl-1-hydroxy-1,2-dihydroimidazole-2-thione]
MIC [1]: 32 µg/mL (≈ 107 µM) | MIC [2]: 2050 µg/mL (≈ 6860 µM) | MIC [3, 7]: 4 µg/mL (≈ 13.4 µM) | MIC [4, 8]: 8 µg/mL (≈ 26.8 µM) | MIC [5, 9]: 64 µg/mL (≈ 215 µM) | MIC [6]: 1020 µg/mL (≈ 3430 µM)

COc1ccc(-c2cn(-c3ccccc3)c(=S)n2O)cc1 [Compound 3, 5-(p-Methoxyphenyl)-3-phenyl-1-hydroxy-1,2-dihydroimidazole-2-thione]
MIC [1]: 32 µg/mL (≈ 107 µM) | MIC [2]: 32 µg/mL (≈ 107 µM) | MIC [3, 7]: 2 µg/mL (≈ 6.7 µM) | MIC [4, 8]: 16 µg/mL (≈ 53.6 µM) | MIC [5, 9]: 512 µg/mL (≈ 1720 µM) | MIC [6]: 512 µg/mL (≈ 1720 µM)

[O-][n+]1ccccc1S [Pyrithione, sodium salt, sodium pyrithione, reference compound]
MIC [1]: 8 to 32 µg/mL | MIC [2]: 4 to 8 µg/mL | MIC [3]: 4 to 16 µg/mL | MIC [4]: 2 to 32 µg/mL | MIC [5]: 32 to 128 µg/mL | MIC [6]: 64 to 128 µg/mL
